Measurements from patent US10683293B2, “Optionally fused heterocyclyl-substituted derivatives of pyrimidine useful for the treatment of inflammatory, metabolic, oncologic and autoimmune diseases” (NUEVOLUTION A/S, priority 2014, dated 2020).

Key:
[1] = target: T1, human RORγt (Ligand Binding Domain) (Homo sapiens, UniProt P51449); experiment: Fluorescence Polarization (FP) Assay; conditions: 100 nM human RORγt LBD, 25 nM TAMRA probe, values are activity range bounds
T1 construct: purchased Crelux (Planegg, Germany) batch no PC5032-1
T1 sequence (P51449 269-508 limits assumed): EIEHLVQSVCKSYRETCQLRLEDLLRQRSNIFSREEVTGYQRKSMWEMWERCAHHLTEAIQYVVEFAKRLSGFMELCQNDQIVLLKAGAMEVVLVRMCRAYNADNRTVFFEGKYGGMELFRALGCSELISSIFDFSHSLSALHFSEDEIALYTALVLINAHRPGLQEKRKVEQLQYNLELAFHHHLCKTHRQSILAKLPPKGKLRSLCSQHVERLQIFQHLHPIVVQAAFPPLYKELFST
Summary of the method: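 In vitro fluorescence polarization binding assay on the RORγt ligand-binding pocket. A TAMRA-labelled RORγt ligand probe (MW 910 g/mol) was used, with DMSO as negative control.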

[2] = target: T2, ligand binding domain of human RORγ (Homo sapiens, UniProt P51449); experiment: RORγ Reporter Assay (Gal4); type: cell-based; conditions: for inhibition at 1 µM: HEK-293T, 1 μM test compound, HEK293t RORγ reporter cells, 24 hour, read-out: Gal4 activity range @ 1 μM (% inhibition); for Gal4 activity range @ 0.1 μM (% inhibition): RORγ Reporter Assay (Gal4), HEK293t reporter cells, compound at 0.1 μM, values are activity range bounds
T2 construct: host or cells: HEK293t
T2 sequence (P51449 269-508 limits assumed): T1 sequence (P51449 269-508 limits assumed)
Summary of the method: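 HEK293t cells expressing Gal4 DBD–human RORγ LBD hybrid with Gal4-UAS firefly luciferase reporter; compounds at final 1,000 nM and 100 nM (0.1% DMSO), triplicate, medium with 10% charcoal-stripped FBS, 24 h at 37 °C. Luminescence read; percent reduction of RORγ activity calculated versus vehicle-only wells.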

| IC50 [1] | inhibition at 1 µM [2] | Gal4 activity range @ 0.1 μM (% inhibition) [2] | Compound |
| --- | --- | --- | --- |
| < 0.5 µM | > 80% | >50 % inhibition | NC(=O)Cc1ccc(CNc2ncnc(N(Cc3cnc(C(F)(F)F)nc3)C3CC3)c2F)cc1 [Example A98, 2-[4-[[[6-[cyclopropyl-[[2-(trifluoromethyl)pyrimidin-5-yl]methyl]amino]-5-fluoro-pyrimidin-4-yl]amino]methyl]phenyl]acetamide] |
| < 0.5 µM | > 50% | >50 % inhibition | NC(=O)Cc1ccc(CNc2ncnc(N(Cc3cccc(C(F)(F)F)c3)C3CC3)c2F)cc1 [Example A101, 2-[4-[[[6-[cyclopropyl-[[3-(trifluoromethyl)phenyl]methyl]amino]-5-fluoro-pyrimidin-4-yl]amino]methyl]phenyl]acetamide] |
| < 1 µM | > 80% | >50 % inhibition | CC(c1ccc(C(F)(F)F)cn1)N(c1ncnc(NCc2ccc(CC(N)=O)cc2)c1F)C1CC1 (centres unmarked) [Example A104, 2-[4-[[[6-[cyclopropyl-[1-[5-(trifluoromethyl)-2-pyridyl]ethyl]amino]-5-fluoro-pyrimidin-4-yl]amino]methyl]phenyl]acetamide] |
| < 0.5 µM | > 50% | >20 % inhibition | NC(=O)Cc1ccc(CNc2ncnc(N(Cc3c(F)cccc3Cl)C3CC3)c2F)cc1 [Example A65, 2-[4-[[[6-[(2-chloro-6-fluoro-phenyl)methyl-cyclopropyl-amino]-5-fluoro-pyrimidin-4-yl]amino]methyl]phenyl]acetamide] |
| < 0.5 µM | > 80% | >50 % inhibition | CC(c1ccc(C(F)(F)F)cc1)N(c1ncnc(NCc2ccc(CC(N)=O)cc2)c1F)C1CC1 (centres unmarked) [Example A3, 2-[4-[[[6-[cyclopropyl-[1-[4-(trifluoromethyl)phenyl]ethyl]amino]-5-fluoro-pyrimidin-4-yl]amino]methyl]phenyl]acetamide] |
| < 0.5 µM | > 80% | >50 % inhibition | NC(=O)Cc1ccc(CNc2ncnc(N(Cc3ccc(C(F)(F)F)cc3O)C3CC3)c2F)cc1 [Example A168, 2-[4-[[[6-[cyclopropyl-[[2-hydroxy-4-(trifluoromethyl)phenyl]methyl]amino]-5-fluoro-pyrimidin-4-yl]amino]methyl]phenyl]acetamide] |
| < 2 µM | > 50% | >20 % inhibition | CN(Cc1ccc(OC(F)(F)F)cc1)c1ncnc(NCc2ccc(CC(N)=O)cc2)c1F [Example A20, 2-[4-[[[5-fluoro-6-[methyl-[[4-(trifluoromethoxy)phenyl]methyl]amino]pyrimidin-4-yl]amino]methyl]phenyl]acetamide] |
| < 0.5 µM | > 80% | >80 % inhibition | O=S(=O)(Nc1ccc(CNc2ncnc(N(Cc3ccc(C(F)(F)F)cc3)C3CC3)c2F)cc1)C(F)F [Example A91, N-[4-[[[6-[cyclopropyl-[[4-(trifluoromethyl)phenyl]methyl]amino]-5-fluoro-pyrimidin-4-yl]amino]methyl]phenyl]-1,1-difluoro-methanesulfonamide] |
| < 0.5 µM | > 80% | >20 % inhibition | NC(=O)Cc1ccc(CNc2ncnc(N(Cc3ccc(C(F)F)nc3)C3CC3)c2F)cc1 [Example A179, 2-[4-[[[6-[cyclopropyl-[[6-(difluoromethyl)-3-pyridyl]methyl]amino]-5-fluoro-pyrimidin-4-yl]amino]methyl]phenyl]acetamide] |
| < 0.5 µM | > 80% | >50 % inhibition | N#CCc1ccc(CNc2ncnc(N(Cc3ccc(C(F)(F)F)cc3)C3CC3)c2F)cc1 [Example A14, 2-[4-[[[6-[cyclopropyl-[[4-(trifluoromethyl)phenyl]methyl]amino]-5-fluoro-pyrimidin-4-yl]amino]methyl]phenyl]acetonitrile] |
| < 2 µM | > 80% | >20 % inhibition | CS(=O)(=O)c1ccc(CNc2ncnc(N(Cc3ccc(C(F)(F)F)cn3)C3CC3)c2F)cn1 [Example A108, N4-cyclopropyl-5-fluoro-N6-[(6-methylsulfonyl-3-pyridyl)methyl]-N4-[[5-(trifluoromethyl)-2-pyridyl]methyl]pyrimidine-4,6-diamine] |

The next lines start with the compound.

| Compound | IC50 [1] | inhibition at 1 µM [2] | Gal4 activity range @ 0.1 μM (% inhibition) [2] |
| --- | --- | --- | --- |
| CN(c1ncnc(NCc2ccc(CC(N)=O)cc2)c1F)C1(c2ccc(C(F)(F)F)cc2)CC1 [Example A81, 2-[4-[[[5-fluoro-6-[methyl-[1-[4-(trifluoromethyl)phenyl]cyclopropyl]amino]pyrimidin-4-yl]amino]methyl]phenyl]acetamide] | < 0.5 µM | > 80% | >50 % inhibition |
| CS(=O)(=O)N1[C@@H]2CC[C@H]1CC(CNc1ncnc(N(Cc3ccc(C(F)(F)F)cc3)C3CC3)c1F)C2 (stereo partly drawn) [Example A171, N6-cyclopropyl-5-fluoro-N4-[[(1S,5R)-8-methylsulfonyl-8-azabicyclo[3.2.1]octan-3-yl]methyl]-N6-[[4-(trifluoromethyl)phenyl]methyl] pyrimidine-4,6-diamine] | < 0.5 µM | > 80% | >80 % inhibition |
| Fc1c(NC[C@H]2CC[C@H](Cc3nnn[nH]3)CC2)ncnc1N(Cc1ccc(C(F)(F)F)cc1)C1CC1 [Example A61, N4-cyclopropyl-5-fluoro-N6-[[4-(1H-tetrazol-5-ylmethyl)cyclohexyl]methyl]-N4-[[4-(trifluoromethyl)phenyl]methyl] pyrimidine-4,6-diamine] | < 0.5 µM | > 80% | >20 % inhibition |
| N#CC[C@H]1CC[C@H](CNc2ncnc(N(Cc3ccc(C(F)(F)F)cc3)C3CC3)c2F)CC1 [Example A62, 2-[4-[[[6-[cyclopropyl-[[4-(trifluoromethyl)phenyl]methyl]amino]-5-fluoro-pyrimidin-4-yl]amino]methyl]cyclohexyl] acetonitrile] | < 0.5 µM | > 80% | >80 % inhibition |
| Cc1ccc(CN(C)c2ncnc(NCc3ccc(CC(N)=O)cc3)c2F)c(C)c1 [Example A138, 2-[4-[[[6-[(2,4-dimethylphenyl)methyl-methyl-amino]-5-fluoro-pyrimidin-4-yl]amino]methyl]phenyl]acetamide] | < 0.5 µM | > 20% | >0 % inhibition |
| Fc1c(NCc2ccc(Cc3nnn[nH]3)cc2)ncnc1N(Cc1ccc(-n2cccn2)cc1)C1CC1 [Example A88, N4-cyclopropyl-5-fluoro-N4-[(4-pyrazol-1-ylphenyl)methyl]-N6-[[4-(1H-tetrazol-5-ylmethyl)phenyl]methyl]pyrimidine-4,6-diamine] | < 0.5 µM | > 50% | >0 % inhibition |
| CCCn1nc(C)cc1CN(C)c1ncnc(NCc2ccc(CC(=O)O)cc2)c1F [Example A150, 2-[4-[[[5-fluoro-6-[methyl-[(5-methyl-2-propyl-pyrazol-3-yl)methyl]amino]pyrimidin-4-yl]amino]methyl]phenyl]acetic acid] | < 2 µM | > 20% | – |
| CS(=O)(=O)c1ccc(CCNc2ncnc(N(Cc3ccc(C(F)(F)F)cc3)C3CC3)c2F)cc1 [Example A147, N4-cyclopropyl-5-fluoro-N6-[2-(4-methylsulfonylphenyl)ethyl]-N4-[[4-(trifluoromethyl)phenyl]methyl] pyrimidine-4,6-diamine] | < 0.5 µM | > 80% | >50 % inhibition |
| O=C(C1CC1)N1CCC(CNc2ncnc(N(Cc3ccc(C(F)(F)F)cc3)C3CC3)c2F)CC1 [Example A167, cyclopropyl-[4-[[[6-[cyclopropyl-[[4-(trifluoromethyl)phenyl]methyl]amino]-5-fluoro-pyrimidin-4-yl]amino]methyl]-1-piperidyl]methanone] | < 0.5 µM | > 80% | >50 % inhibition |
| CCCn1nc(C)cc1CN(C)c1ncnc(NCC2CCN(S(C)(=O)=O)CC2)c1F [Example A148, 5-fluoro-N4-methyl-N4-[(5-methyl-2-propyl-pyrazol-3-yl)methyl]-N6-[(1-methylsulfonyl-4-piperidyl)methyl]pyrimidine-4,6-diamine] | < 0.5 µM | > 20% | >0 % inhibition |
| OC1(CNc2ncnc(N(Cc3ccc(C(F)(F)F)cc3)C3CC3)c2F)CCOC1 (centres unmarked) [Example A5, 3-[[[6-[cyclopropyl-[[4-(trifluoromethyl)phenyl]methyl]amino]-5-fluoro-pyrimidin-4-yl]amino]methyl]tetrahydrofuran-3-ol] | < 1 µM | > 80% | >20 % inhibition |
